Assay results published in patent publication US11696924B2, “Combination therapy using PDK1 and PI3K inhibitors” (MEMORIAL SLOAN-KETTERING CANCER CENTER, priority 2015, dated 2023).
Entries after “also recorded” stand apart in the source; their conditions may differ.

Columns and labels:
mTORC1 = test: Western blot of mTORC1 signaling (pS6K, pS6, p4EBP1); assay type: cell-based
Description: (§3) For western blot analysis proteins were extracted in RIPA buffer supplemented with protease and phosphatase inhibitors (Roche). Protein lysates were separated using SDS-PAGE gels and transferred to a PVDF membrane. Then, membranes were probed using specific antibodies. PDK1, pAKT (S473), pAKT (T308), pS6K (T389), pS6 (S240/4), pS6 (235/6), p4EBP1 (S65), PARP, Actin, pRSK (S227), cleaved Caspase 3, pFOXO1/3 (T24/T32), SGK1, SGK2, SGK3, pNDRG1 (T346), NDRG1, Flag, HA, and phospho-RXRXX(S/T) (SEQ ID NO: 1) were from Cell Signaling Technology (CST).

FOXO3 = test: FOXO-dependent transcription (microarray, RT-PCR, immunofluorescence, luciferase reporter, ChIP-qPCR); assay type: cell-based; details: HCC1954 and JIMT1, 1 μM, 4 h, vs DMSO
Procedure: B) Enrichment plot for the FOXO3 signature in HCC1954 cells. C) Heat map showing changes in previously described FOXO3 targets.
G) Luciferase reporter assay in HCC1954 cells stably transduced with the FOXO consensus motif reporter construct treated as indicated for 12 h (RLU, Relative light units). H) ChIP-qPCR assay of FOXO3A binding at TNFSF10A and IRS2 promoters in HCC1954 cells treated as indicated in F. P values are calculated using Student's t-test. Error bars are ±SEM.
RNA was isolated from cells using the QIAGEN RNeasy kit. For microarray analysis, biotinylated cRNA was prepared according to the standard Illumina protocol. After fragmentation, cRNA was hybridized with Illumina GX HT12 Human Array. Slides were washed and stained in the Illumina instrument following manufactured protocol. Slides were scanned using Illumina Bead Array Reader. Data were analyzed using GenomeStudio software. No normalization and background correction are performed first, then quantile normalization and background correction are done.
For mRNA expression analysis, cDNA was prepared using the Bio-Rad cDNA synthesis kit. cDNA was amplified by quantitative PCR using SYBR Select Master Mix (Applied Biosystems) in the ViiA 7 Real-Time PCR system. All reactions were carried out in triplicate.
Lysed cells were sonicated on ice to yield 200-800 bp DNA fragments. […]

AKT = test: kinase activity of immunoprecipitated endogenous AKT; assay type: cell-based; details: HCC1954, 4 hr, Crosstide substrate
Procedure: (§1) In vitro kinase activity of endogenous SGK1 and AKT was assayed by measuring [γ-32P] ATP incorporation into Crosstide substrate peptide [[…]] […] SGK1 and AKT were immunoprecipitated from HCC1954 cell line 4 hr after treatment. Immunoprecipitates were washed once with lysis buffer containing 500 mM NaCl, once with lysis buffer, and twice with Buffer A (50 mM Tris pH 7.5, 0.1 mM EGTA). Reactions were carried out in 40 μL total volume containing 0.1 mM [γ-32P] ATP (400-1000 cpm/pmol), 10 mM magnesium acetate, and 30 μM Crosstide peptide. Reactions were terminated by adding 10 μL […] EDTA. 40 μL of the reaction mix was spotted on P81 paper, which was immediately immersed into 50 mM ortophosphoric acid and washed several times. Papers were rinsed in acetone and air dried. Radioactivity was quantified by Cerenkov counting. One unit of enzyme activity was defined as the amount of enzyme that catalyzes incorporation of 1 nmol of [γ-32P] ATP into the substrate over one minute.

pNDRG1 (T346) = test: Western blot of NDRG1 phosphorylation (T346); assay type: cell-based; details: 4 h
Procedure: A) SGK1 mRNA levels in breast cancer cell lines sensitive or resistant to BYL719 (n=27). B) SGK1 mRNA levels in PIK3CA-mutant breast cancer cell lines sensitive or resistant to BYL719. C) Western blot of SGK1, SGK2, SGK3 and phosphorylated NDRG1 in a panel of PIK3CA—mutant breast cancer cell lines sensitive or resistant to BYL719. D) Western blot for NDRG1 and phosphorylated NDRG1 (T346) in BYL719-sensitive and -resistant breast cancer cell lines treated with BYL719 (1 μM) for 4 h. […] P values are calculated using Student's t-test. Error bars are ±SEM.
A) Dose-response curves from MDA-MB-361 cells transduced with pLenti7.3-LacZ or pLenti7.3-SGK1 (Δ60, S422D) treated with increasing concentrations of BYL719 for 6 days. B) Western blot analysis of LacZ and SGK1 MDA-MB-361 cells treated with BYL719 (1 μM) for 4 h. […] The DFG motif amino acids are indicated (D240, F241, G242). […] Hydrogen bonds are shown as dotted lines. […] L) IHC analysis of tumors from K collected at the end of the experiment. M) Top panel: growth curves of HCC1954 cells stably expressing doxycycline-inducible control (REN) or SGK1 knockdown treated with increasing concentrations of BYL719 for 6 days. Bottom panel: Western blot analysis of GFP-sorted control (REN) and SGK1 shRNA cells treated with BYL719 (1 μM) for 4 h. P values are calculated using Student's t-test. Error bars are ±SEM.
(§2) Then, membranes were probed using specific antibodies.

SGK1 = test: kinase activity and phosphorylation of immunoprecipitated endogenous SGK1; assay type: cell-based; details: HCC1954, 4 hr, Crosstide substrate
Procedure: as §1

HCC1954 cells = test: apoptosis: PARP cleavage and caspase 3/7 activity; assay type: cell-based; details: HCC1954 shPDK1, BYL719 1 μM, long term
Description: For Caspase 3/7 activity, the Caspase-Glo® 3/7 Assay kit from Promega was used following manufacturer's instructions. The caspase inhibitor zVAD-fmk was used to inhibit apoptosis in cells and was also obtained from Promega.
as §2

[1] = tested on: PIK3CA-mutant breast cancer; test: clinical trial NCT01870505, PIK3CA-mutant breast cancer; assay type: in vivo, patients; details: with an aromatase inhibitor
Description: We then explored whether SGK1 and pNDRG1 expression correlate with clinical outcome to PI3Kα inhibition by analyzing PIK3CA-mutant breast cancer samples from 18 patients treated with BYL719 in combination with an aromatase inhibitor (NCT01870505). Three of these tumors expressed high levels of SGK1 mRNA while the remaining 15 had medium/low levels of SGK1 mRNA. […] This was in agreement with the longer time to disease progression of this subset of patients when compared to the SGK1-high/pNDRG1-positive cohort (FIG. 4H, I).
The MSKCC Institutional Review Board approved the study. Pre-treatment FFPE blocks from patients treated with the PI3Kα inhibitor BYL719 enrolled in the clinical trial NCT01870505 conducted at MSKCC were used for IHC. Informed consent was obtained from all subjects.
For the study of patients treated with the PI3Kα inhibitor BYL719, pre-treatment biopsy FFPE blocks from patients enrolled in the clinical trial NCT01870505 conducted at MSKCC were used for IHC as described above. For the selection of the patients, PIK3CA and other tumor genomic drivers were analyzed using MSK-IMPACT (Cheng et al., 2015). […] SGK1 mRNA levels were determined using next-generation sequencing (NGS) and the expression results were presented as raw Reads Per Kilobase of transcript per Million mapped reads (RPKM). Mean and standard deviation (SD) was calculated across all the samples with available NGS data and overexpression of SGK1 was called for the samples with mRNA levels greater than mean+1SD. For 6 samples, RNA quality and quantity was not optimal for NGS. In these cases, SGK1 mRNA levels were determined using RT-qPCR as described above. RNA from low expressing (T47D) and high expressing (HCC1954) cell lines were used as positive control and absolute mRNA levels were quantified.

pAKT (S473, T308) = test: Western blot of AKT phosphorylation; assay type: cell-based
Description: as §3

Cc1nc(NC(=O)N2CCC[C@H]2C(N)=O)sc1-c1ccnc(C(C)(C)C(F)(F)F)c1 [BYL719]
mTORC1 signaling (mTORC1; BYL719-resistant cells (HCC1954, JIMT1), 4 h, BYL719 1 μM, GSK2334470 1 μM, SGK1-inh 10 μM): not downstream mTORC1 targets; also recorded: not mTORC1 signaling | phosphorylation of mTORC1 downstream targets in PDK1 knockdown cells (mTORC1; HCC1954 and JIMT1 shPDK1, BYL719 1 μM, 4 h): decreased the phosphorylation of the mTORC1 downstream targets | mTORC1 signaling (mTORC1; HCT116 PDPK1−/− cells): inhibits mTORC1 | mTORC1 signaling (mTORC1; HCT116 parental cells): does not decrease mTORC1 signaling | mTORC1 signaling (mTORC1; MDA-MB-361 cells overexpressing SGK1, 1 μM, 4 h): maintained mTORC1 signaling | AKT phosphorylation and mTORC1 signaling (mTORC1; MDA-MB-361 parental cells, 1 μM, 4 h): decreased both AKT phosphorylation and mTORC1 signaling | changes in gene expression / transcriptomic profile (FOXO3): modest | endogenous AKT kinase activity (AKT): completely abrogated | NDRG1 phosphorylation (T346) (pNDRG1 (T346); BYL719-resistant cell lines): maintain NDRG1 phosphorylation | NDRG1 phosphorylation (T346) (pNDRG1 (T346); BYL719-sensitive cell lines, 1 μM): decreased NDRG1 phosphorylation at T346 | endogenous SGK1 kinase activity (SGK1): remains active | apoptosis markers in PDK1 knockdown cells (HCC1954 cells): induced PARP cleavage (FIG. 2C) and increased caspase 3/7 activity | clinical response by RECIST ([1]; patients with pNDRG1-negative tumors): three had partial responses and eight had stable disease | clinical response ([1]; three patients, tumors with high SGK1, pNDRG1 positive): did not respond to therapy | clinical response ([1]; two patients, medium/low SGK1, pNDRG1 positive): rapidly progressed | AKT phosphorylation / activity (pAKT (S473, T308); BYL719-resistant cells (HCC1954, JIMT1), 1 μM, 4 h): reduced AKT phosphorylation (S473 and T308); also recorded: effectively suppressed AKT activity | pAKT (S473) levels fully decreased (pAKT (S473, T308); CAL-148 and CAL-51 cells, 1 μM, 4 h): fully decreases pAKT levels | AKT phosphorylation (pAKT (S473, T308); HCT116 PDPK1+/+ and PDPK1−/− cells): decreases AKT phosphorylation
